The source of these data is DBAASP.

Converted amounts (≈) assume the structure as drawn.

Among the test systems are Acinetobacter baumannii; Campylobacter jejuni; Escherichia coli K-12; Escherichia coli; Pseudomonas aeruginosa; Botrytis cinerea; Fusarium verticillioides; Proteus vulgaris; Citrobacter sp.; Enterobacter cloacae; Klebsiella pneumoniae; Staphylococcus aureus; Streptococcus pneumoniae.
Holding throughout (assay): ≥ marks a high value that may be exact or a test limit, other limits are often not marked, values filed in µg/mL are converted to µM
In assay [1] the test system is Escherichia coli ATCC 25922.
The test system of assay [2] is Klebsiella pneumoniae ATCC 13883.
Assay [3] deals with Pseudomonas aeruginosa PAO1.
The test system of assay [4] is Staphylococcus aureus USA 300 LAC.
The subject of assay [5] is Staphylococcus aureus USA 300.
In assay [6] the test system is Acinetobacter baumannii Q13-0717.
Assay [7] concerns Campylobacter jejuni ATCC 33292.
The test system of assay [8] is Campylobacter jejuni NCTC 11161.
In assay [9] the test system is Campylobacter jejuni NCTC 11351.
Assay [10] has as its system Enterococcus faecalis JH-2-2.
The test system of assay [11] is Klebsiella pneumoniae ATCC 700603.
For assay [12], the system named is Klebsiella pneumoniae NCTC 13442.
Assay [13] deals with Klebsiella pneumoniae Q14-0285.
Assay [14] has as its system Listeria monocytogenes NCTC 11994.
Assay [15] relates to Pseudomonas aeruginosa ATCC 27853.
Assay [16] deals with Pseudomonas aeruginosa Q14-0208.
Assay [17] relates to Pseudomonas aeruginosa Q14-0890.
For assay [18], the system named is Salmonella typhimurium SL1344.
Assay [19] relates to Staphylococcus aureus ATCC 29213.
The subject of assay [20] is Staphylococcus aureus ATCC 33591.
Assay [21] relates to Staphylococcus aureus MRSA-15.
In assay [22] the test system is Staphylococcus aureus NCTC 12493.
The subject of assay [23] is Staphylococcus aureus Q14-0320.
Assay [24] has as its system Staphylococcus aureus RN4220.
Assay [25] deals with Aspergillus flavus KCTC 9471.
The subject of assay [26] is Aspergillus fumigatus KCTC 6145.
Assay [27] relates to Bacillus subtilis KCTC 1918.
Assay [28] deals with Candida albicans KCTC 7270.
The test system of assay [29] is Escherichia coli KCTC 1682.
Assay [30] has as its system Escherichia coli O157:H7 ATCC 43895.
In assay [31] the test system is Listeria monocytogenes KCTC 3710.
Assay [32] relates to Pseudomonas aeruginosa KCTC 1637.
Assay [33] concerns Saccharomyces cerevisiae KCTC 7296.
Assay [34] relates to Salmonella typhimurium KCTC 1926.
Assay [35] concerns Staphylococcus aureus KCTC 1621.
Assay [36] relates to Staphylococcus epidermidis KCTC 1917.
Assay [37] relates to Staphylococcus epidermidis.
Assay [38] relates to Trichosporon beigelii KCTC 7707.
Assay [39] deals with Acinetobacter baumannii ATCC 15308.
Assay [40] deals with Pseudomonas aeruginosa ATCC 15442.
In assay [41] the test system is Staphylococcus aureus ATCC 25923.

By MIC is commonly meant the smallest concentration in the dilution series that meets the test's criterion for growth inhibition. A high value points to a need for much substance. For the compound `CC[C@H](C)[C@H](NC(=O)[C@H](CCCN=C(N)N)NC(=O)[C@H](CCCN=C(N)N)NC(=O)[C@H](CC(C)C)NC(=O)[C@H](Cc1c[nH]c2ccccc12)NC(=O)[C@H](Cc1c[nH]c2ccccc12)NC(=O)[C@@H](N)Cc1c[nH]c2ccccc12)C(=O)N[C@@H](CCCN=C(N)N)C(N)=O` [WWWLRRIR], the MIC in assay [1] amounted to 25 µM (≈ 31.8 µg/mL); in assay [2], 25 µM (≈ 31.8 µg/mL); in assay [3], 12.5 µM (≈ 15.9 µg/mL); in [4], 12.5 µM (≈ 15.9 µg/mL); in assay [5], 12.5 µM (≈ 15.9 µg/mL).
On to `CC[C@H](C)[C@H](NC(=O)[C@H](CCCN=C(N)N)NC(=O)[C@@H](NC(=O)[C@H](CC(C)C)NC(=O)[C@H](CC(C)C)NC(=O)[C@H](CCCCN)NC(=O)[C@H](CC(N)=O)NC(=O)[C@@H](NC(=O)[C@H](CCCN=C(N)N)NC(=O)[C@H](CCCN=C(N)N)NC(=O)[C@H](CC(C)C)NC(=O)[C@@H](N)Cc1cnc[nH]1)[C@@H](C)CC)[C@@H](C)O)C(=O)NCC(=O)N[C@@H](CC(C)C)C(=O)N[C@@H](Cc1ccc(O)cc1)C(=O)N[C@@H](CCCN=C(N)N)C(=O)N[C@@H](Cc1cnc[nH]1)C(=O)N[C@@H](C)C(=O)N[C@@H](Cc1ccccc1)C(=O)NCC(=O)O` [HLRRINKLLTRIGLYRHAFG], for which the MIC in assay [6] is 3.29 µM (≈ 8 µg/mL); in the assay on Acinetobacter baumannii, 6.57 µM (≈ 16 µg/mL); in [7] it was 13.1 µM (≈ 32 µg/mL); in assay [8], 13.1 µM (≈ 32 µg/mL); in assay [9] it was ≥ 52.6 µM; against Campylobacter jejuni, ≥ 52.6 µM. Besides, the MIC in assay [10] was 13.1 µM (≈ 32 µg/mL); with Escherichia coli K-12 it was 26.3 µM (≈ 64 µg/mL); with Escherichia coli it was > 52.6 µM; in assay [11], 26.3 µM (≈ 64 µg/mL); in assay [12], ≥ 52.6 µM; in assay [13], 26.3 µM (≈ 64 µg/mL). Moreover, the MIC in assay [14] was 13.1 µM (≈ 32 µg/mL); in [15], > 52.6 µM; in assay [3] it was 52.6 µM (≈ 128 µg/mL); in assay [16], 13.1 µM (≈ 32 µg/mL); in assay [17] it was 26.3 µM (≈ 64 µg/mL); in the assay with Pseudomonas aeruginosa it was 105 µM (≈ 256 µg/mL). For the same compound, the MIC was 13.1 µM (≈ 32 µg/mL) in assay [18]; > 52.6 µM in assay [19]; ≥ 52.6 µM in [20]; 13.1 µM (≈ 32 µg/mL) in [21]; 26.3 µM (≈ 64 µg/mL) in assay [22]; ≥ 52.6 µM in assay [23]. Moreover, the MIC was 13.1 µM (≈ 32 µg/mL) in [24] and ≥ 105 µM in assay [5].
Take `CC[C@H](C)[C@H](NC(=O)[C@H](CCCCN)NC(=O)[C@H](CO)NC(=O)[C@H](Cc1ccccc1)NC(=O)[C@H](CC(C)C)NC(=O)[C@H](CCCCN)NC(=O)[C@H](CCC(=O)O)NC(=O)[C@H](CC(C)C)NC(=O)[C@H](CCCN=C(N)N)NC(=O)[C@H](CCCCN)NC(=O)[C@H](Cc1ccccc1)NC(=O)[C@@H](NC(=O)[C@H](CCCCN)NC(=O)[C@H](CCCCN)NC(=O)[C@H](C)N)C(C)C)C(=O)N[C@@H](CCC(N)=O)C(=O)N[C@@H](CC(N)=O)C(=O)N[C@@H](CC(=O)O)C(=O)N[C@@H](CCCCN)C(N)=O` [AKKVFKRLEKLFSKIQNDK]: the MIC was ≥ 50 µM in [25]; ≥ 50 µM in [26]; 3.13 µM (≈ 7.26 µg/mL) in assay [27]; 12.5 µM (≈ 29 µg/mL) with Botrytis cinerea; 25 µM (≈ 58 µg/mL) in assay [28]; 12.5 µM (≈ 29 µg/mL) in assay [29]. In addition, the MIC in assay [30] was found to be 12.5 µM (≈ 29 µg/mL); in the assay with Escherichia coli it was 3.13 µM (≈ 7.26 µg/mL); in the assay on Fusarium verticillioides, 25 µM (≈ 58 µg/mL); in assay [31] it was 6.25 µM (≈ 14.5 µg/mL); in the assay on Proteus vulgaris, 4.42 µM (≈ 10.3 µg/mL); in [32] it was 1.56 µM (≈ 3.62 µg/mL). The MIC amounted to 6.25 µM (≈ 14.5 µg/mL) in the assay on Pseudomonas aeruginosa; 25 µM (≈ 58 µg/mL) in [33]; 1.56 µM (≈ 3.62 µg/mL) in [34]; 12.5 µM (≈ 29 µg/mL) in assay [35]; 3.12 µM (≈ 7.25 µg/mL) in assay [36]; 6.25 µM (≈ 14.5 µg/mL) in [37]. The compound further registered an MIC in [38] of 3.13 µM (≈ 7.26 µg/mL).
For the compound `NC(=O)[C@H](CCCN=C(N)N)NC(=O)[C@H](CCCN=C(N)N)NC(=O)[C@H](Cc1c[nH]c2ccccc12)NC(=O)[C@@H]1CCCN1C(=O)[C@H](Cc1c[nH]c2ccccc12)NC(=O)[C@H](CCCN=C(N)N)NC(=O)[C@@H]1CCCN1C(=O)[C@H](Cc1c[nH]c2ccccc12)NC(=O)[C@H](CCCN=C(N)N)NC(=O)[C@H](Cc1c[nH]c2ccccc12)NC(=O)[C@@H]1CCCN1C(=O)[C@H](CCCN=C(N)N)NC(=O)[C@@H](N)CCCN=C(N)N` [RRPWRWPRWPWRR], the MIC was ≥ 126 µM in assay [39]; ≥ 126 µM against Citrobacter sp.; ≥ 126 µM in the assay with Enterobacter cloacae; 15.7 µM (≈ 31.2 µg/mL) in [1]; > 126 µM in the assay on Klebsiella pneumoniae; 15.7 µM (≈ 31.2 µg/mL) in [40]. Besides, the results for the MIC (in assay [41]; with Staphylococcus aureus; against Streptococcus pneumoniae) were 15.7 µM (≈ 31.2 µg/mL), 31.4 µM (≈ 62.5 µg/mL) and 31.4 µM (≈ 62.5 µg/mL), respectively.
